In US20240199634A1, “CYCLIC COMPOUNDS AND METHODS OF USING SAME” (SCHRÖDINGER, INC., priority 2021, published 2024):

How the values were obtained:
[1] = tested on: phosphorylation of MCM2 S53 in colo205 cells; test: Phosphorylated MCM2 MSD Electrochemiluminescence Assay; type: cell-based; conditions: Homo sapiens, COLO 205, 20 h incubation, read-out: pMCM2-S53 MSD Colo205 IC50
Experimental: Phosphorylated MCM2 MSD Electrochemiluminescence Assay
The effect of CDC7 inhibitors on cellular phosphorylation of the CDC7 substrate MCM2 was determined using the following protocol:
A total of 40,000 colo205 cells in 100 μL culture medium (1640 medium+10% Fetal bovine serum+1% Penicillin-Streptomycin) were plated in 96-well cell culture plates and allowed to attach for 6 hours. 3-fold serial dilutions of test compounds were prepared in completed PBS at 25× final concentration and 4 μL of each were added to the cells and incubated for 20 hours at 37° C., 5% CO2. Each concentration was tested in duplicate. After the 20 h incubation, cells were washed with 150 μL PBS and lysed with 40 μL MSD lysis buffer (obtained from Meso Scale Diagnostics) supplied with 1× complete ULTRA cocktail inhibitor (obtained from Roche). To detect phosphorylation of MCM2 S53, 30 μL of capture antibody solution (obtained from Abnova, catalog number H00004171-M01, 1:500) was added to each well of MULTI-ARRAY 96-well High Bind Plate, and incubated overnight. The antibody solution was removed, wells blocked with BSA solution and plates washed, followed by addition of 30 μl of cell lysate per well. After 2 h incubation, plates were washed. 30 μL of 1× detection antibody solution (obtained from Abcam, catalog number ab109133, 1:1000) was then added to each well and incubate for 1 hour. Plates were washed and 30 μL of 1× secondary antibody solution (obtained from MSD, catalog number R32AB-1, 1:5000) was added to each well and incubate for 1 hour. Plates were washed and 150 μL of 1× Read Buffer T was added to each well of the MSD plate. The electrochemiluminescence signal was measured on a MESO SECTOR 5600 plate reader. The percentage of remaining phosphorylated MCM2 signal was calculated following the equation below.
[formula] • HC (high control): Cells treated with DMSO • Cpds: Cells treated with test compounds • LC (low control): Cells treated with positive control CDC7 inhibitor

[2] = molecular target: T1, Full length human CDC7 protein co-expressed with DBF4 (Homo sapiens, UniProt O00311); test: CDC7 Kinase Biochemical Assay (ADP-Glo, PDKtide substrate); conditions: 0.1 nM CDC7/DBF4, 1 μM ATP, 10 μM PDKtide, 4 h reaction
T1 construct: Full length human CDC7 protein co-expressed with DBF4; purchased SignalChem (China)
Experimental: CDC7 Kinase Biochemical Assay PROTOCOL:
Full length human CDC7 protein co-expressed with DBF4 was purchased from SignalChem (China). CDC7 kinase activity was determined with PDKtide (SignalChem) as a substrate and by measuring ADP production using the ADP-Glo™ Kinase Assay kit (Promega) following the manufacturer's instructions. The kinase reaction was performed using the following conditions: Buffer: 40 mM Tris pH 7.5, 20 mM MgCl2, 0.1 mg/mL BSA and 50 μM DTT. Final reaction mix contained 0.1 nM CDC7/DBF4, 1 μM ATP and 10 μM PDKtide. The kinase reaction time was 4 h. The ADP-Glo signal was measured using an EnVision plate reader (PerkinELmer).
Percent inhibition of CDC7 kinase activity was calculated based on the following formula:
[formula] • SSample: the signal of compounds • SHigh Ctrl: the signal of high control (DMSO) • SLow Ctrl: the signal of low control (positive control CDC7 inhibitor)

T1 sequence (O00311 whole entry): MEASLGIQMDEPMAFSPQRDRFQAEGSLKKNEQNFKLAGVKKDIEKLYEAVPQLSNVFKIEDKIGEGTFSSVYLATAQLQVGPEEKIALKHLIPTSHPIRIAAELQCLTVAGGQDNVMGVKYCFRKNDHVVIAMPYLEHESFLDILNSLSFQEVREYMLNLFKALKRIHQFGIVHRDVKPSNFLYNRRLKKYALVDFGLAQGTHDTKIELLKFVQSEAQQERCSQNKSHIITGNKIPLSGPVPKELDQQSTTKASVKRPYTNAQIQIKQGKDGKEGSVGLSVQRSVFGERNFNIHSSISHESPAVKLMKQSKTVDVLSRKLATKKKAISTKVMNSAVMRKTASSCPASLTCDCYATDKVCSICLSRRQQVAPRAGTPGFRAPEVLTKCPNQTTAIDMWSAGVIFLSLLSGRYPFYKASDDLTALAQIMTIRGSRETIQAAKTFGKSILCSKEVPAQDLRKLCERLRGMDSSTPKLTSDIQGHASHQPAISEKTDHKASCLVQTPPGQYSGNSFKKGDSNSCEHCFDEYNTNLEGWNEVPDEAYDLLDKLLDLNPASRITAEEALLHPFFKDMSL
T1 sequence (Q9UBU7 whole entry partner): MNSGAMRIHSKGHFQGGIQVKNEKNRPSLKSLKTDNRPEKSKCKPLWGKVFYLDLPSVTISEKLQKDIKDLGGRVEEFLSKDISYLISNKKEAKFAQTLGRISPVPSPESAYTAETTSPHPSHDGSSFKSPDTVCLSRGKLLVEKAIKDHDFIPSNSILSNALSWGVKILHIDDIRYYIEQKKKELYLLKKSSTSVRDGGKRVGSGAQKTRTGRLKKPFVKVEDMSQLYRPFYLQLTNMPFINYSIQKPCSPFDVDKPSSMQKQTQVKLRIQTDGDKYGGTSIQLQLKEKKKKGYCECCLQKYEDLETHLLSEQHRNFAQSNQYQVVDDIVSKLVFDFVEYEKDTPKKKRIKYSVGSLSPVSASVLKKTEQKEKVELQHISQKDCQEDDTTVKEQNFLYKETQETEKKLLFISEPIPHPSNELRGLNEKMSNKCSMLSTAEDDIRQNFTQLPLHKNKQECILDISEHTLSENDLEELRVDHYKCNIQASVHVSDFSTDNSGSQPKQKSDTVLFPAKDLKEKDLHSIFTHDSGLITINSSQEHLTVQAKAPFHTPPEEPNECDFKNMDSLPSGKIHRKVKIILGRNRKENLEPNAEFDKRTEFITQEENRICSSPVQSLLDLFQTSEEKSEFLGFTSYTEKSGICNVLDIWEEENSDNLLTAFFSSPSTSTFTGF

Compound | IC50 [1] [nM] | IC50 [2] [nM]
O=c1[nH]c2c(c3cc(-c4cn[nH]c4)sc13)C1CCC2(O)CC1 [Compound 8, 6-hydroxy-2-(1H-pyrazol-4-yl)-6,7,8,9-tetrahydro-6,9-ethanothieno[2,3-c]quinolin-4(5H)-one] | 20 to 50 | ≤ 1
CC(C)(C)[C@@]1(O)COCc2c1[nH]c(=O)c1sc(-c3ccncc3)cc21 (single isomer, unassigned) [Compound 22] | ≤ 5 | ≤ 1
CC(C)C1(O)COCc2c1[nH]c(=O)c1sc(-c3cn[nH]c3)cc21 (single isomer, unassigned) [Compound 16] | ≤ 5 | ≤ 1
CCC1(O)COCc2c1[nH]c(=O)c1sc(-c3cn[nH]c3)cc21 (single isomer, unassigned) [Compound 18] | 5 to 20 | ≤ 1
Cn1nccc1-c1cc2c3c([nH]c(=O)c2s1)C(O)(C(F)(F)F)COC3 (single isomer, unassigned) [Compound 30] | > 50 | ≤ 1
Cc1n[nH]cc1-c1cc2c3c([nH]c(=O)c2s1)C(O)(C(F)(F)F)COC3 (single isomer, unassigned) [Compound 32] | 5 to 20 | ≤ 1
CC(C)C1(O)COCc2c1[nH]c(=O)c1sc(-c3c[nH]nc3F)cc21 (single isomer, unassigned) [Compound 27] | ≤ 5 | ≤ 1
CC(C)(C)[C@@]1(O)COCc2c1[nH]c(=O)c1sc(-c3cn[nH]c3)cc21 (single isomer, unassigned) [Compound 20] | ≤ 5 | ≤ 1
COC12CCC(CC1)c1c2[nH]c(=O)c2sc(-c3cn[nH]c3)cc12 [Compound 7, 6-methoxy-2-(1H-pyrazol-4-yl)-6,7,8,9-tetrahydro-6,9-ethanothieno[2,3-c]quinolin-4(5H)-one] | 20 to 50 | ≤ 1

The remaining lines, values ahead:

IC50 [1] [nM] | IC50 [2] [nM] | Compound
5 to 20 | ≤ 1 | CC(C)C1(O)COCc2c1[nH]c(=O)c1sc(-c3ccns3)cc21 (single isomer, unassigned) [Compound 46]
5 to 20 | ≤ 1 | Cc1cnccc1-c1cc2c3c([nH]c(=O)c2s1)C(O)(C(C)(C)C)COC3 (single isomer, unassigned) [Compound 69]
≤ 5 | ≤ 1 | CC(C)(C)C1(O)COCc2c1[nH]c(=O)c1sc(-c3ccncc3F)cc21 (single isomer, unassigned) [Compound 59]
> 50 | 1 to 10 | CC1(C)COCc2c1[nH]c(=O)c1sc(-c3cn[nH]c3)cc21 [Compound 58, 4,4-dimethyl-8-(1H-pyrazol-4-yl)-1,3,4,5-tetrahydro-6H-pyrano[4,3-b]thieno[3,2-d]pyridin-6-one]
20 to 50 | ≤ 1 | CC(C)(C)C1(O)CNCc2c1[nH]c(=O)c1sc(-c3cn[nH]c3)cc21 (centres unmarked) [Compound 93, 4-(tert-butyl)-4-hydroxy-8-(1H-pyrazol-4-yl)-1,3,4,5-tetrahydrothieno[2,3-c][1,6]naphthyridin-6(2H)-one]
5 to 20 | ≤ 1 | Cn1nccc1-c1cc2c3c([nH]c(=O)c2s1)C(O)(C(C)(C)C)COC3 (single isomer, unassigned) [Compound 89]
20 to 50 | ≤ 1 | O=c1[nH]c2c(c3cc(-c4cn[nH]c4)sc13)COCC2(O)C(F)F (single isomer, unassigned) [Compound 42]
5 to 20 | ≤ 1 | O=c1[nH]c2c(c3cc(-c4cn[nH]c4)sc13)CCCC2(O)C(F)F (single isomer, unassigned) [Compound 37]
≤ 5 | > 10 | Cc1n[nH]cc1-c1cc2c3c([nH]c(=O)c2s1)C(O)(C(C)(C)C)COC3 (single isomer, unassigned) [Compound 91]
> 50 | ≤ 1 | CC(C)(C)[C@@]1(O)COCc2c1[nH]c(=O)c1sc(N3CCOCC3)cc21 [Compound 85, (S)-4-(tert-butyl)-4-hydroxy-8-morpholino-1,3,4,5-tetrahydro-6H-pyrano[4,3-b]thieno[3,2-d]pyridin-6-one]
> 50 | 1 to 10 | CC1(O)CCCc2c1[nH]c(=O)c1sc(-c3cn[nH]c3)cc21 (single isomer, unassigned) [Compound 41]
≤ 5 | ≤ 1 | CCC1(O)CC(F)(F)Cc2c1[nH]c(=O)c1sc(-c3cn[nH]c3)cc21 (single isomer, unassigned) [Compound 51]
5 to 20 | ≤ 1 | CC(C)C1(O)COCc2c1[nH]c(=O)c1sc(-c3ccncc3)cc21 (single isomer, unassigned) [Compound 44]
